Measurements reported in patent US11382956B2, “Amylin analogues” (Zealand Pharma A/S, priority 2016, dated 2022).
Numbered stars: 1 amine (or outer) side, 2 acyl side, 3 side chain; on linkers, the order of the positions; unused ones are H or OH. Bridge positions count the residues as written; N and C are the ends. Square brackets hold non-standard residues; d marks the D form. Peptide text beside a SMILES is read from it. * marks the point of attachment. C20 diacid = O=C(O)CCCCCCCCCCCCCCCCCCC(=O)*; γGlu = O=C(O)[C@H](CCC(=O)[*:2])N[*:1]; Hyp = O=C(O)[C@@H]1C[C@@H](O)CN1; NMeI = CC[C@H](C)[C@H](NC)C(=O)O; Aad = N[C@@H](CCCC(=O)O)C(=O)O; Orn = NCCC[C@H](N)C(=O)O; Dab = NCC[C@H](N)C(=O)O; Dap = NC[C@H](N)C(=O)O; Sar = CNCC(=O)O

Columns and labels:
[1] = target: T1, recombinant human calcitonin receptor (hCT-R) (Homo sapiens, UniProt P30988); test: hCT-R cAMP assay (AlphaScreen) in 1321N1 cells; assay type: cell-based; conditions: cAMP formation, 45 min stimulation
T1 construct: host or cells: human astrocytoma cell line 1321N1
T1 sequence (P30988 25-474): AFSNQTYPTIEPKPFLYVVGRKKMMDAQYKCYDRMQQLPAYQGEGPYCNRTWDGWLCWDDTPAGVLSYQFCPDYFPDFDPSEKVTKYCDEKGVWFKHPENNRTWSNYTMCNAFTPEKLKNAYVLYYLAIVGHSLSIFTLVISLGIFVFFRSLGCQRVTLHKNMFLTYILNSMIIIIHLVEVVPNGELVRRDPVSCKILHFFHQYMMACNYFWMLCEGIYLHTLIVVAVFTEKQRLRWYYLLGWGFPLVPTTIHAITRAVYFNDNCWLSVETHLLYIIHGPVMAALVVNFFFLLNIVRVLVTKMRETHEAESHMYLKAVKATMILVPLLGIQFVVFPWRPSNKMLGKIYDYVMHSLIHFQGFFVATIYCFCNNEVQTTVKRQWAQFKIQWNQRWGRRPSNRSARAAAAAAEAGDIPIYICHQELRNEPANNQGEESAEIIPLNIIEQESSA
Method in brief: (§1)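 1321N1 astrocytoma cells expressing recombinant human calcitonin receptor alone or with RAMP3 (AMY3) stimulated 45 min at room temperature with peptide in IBMX-containing buffer. cAMP quantified by AlphaScreen after 1 h bead incubation; EC50 fitted from at least 7 concentrations.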

[2] = target: T2, recombinant human amylin 3 receptor (hAMYR3) (Homo sapiens, UniProt O60896+P30988); test: hAMYR3 cAMP assay (AlphaScreen) in 1321N1 cells; assay type: cell-based; conditions: cAMP formation, 45 min stimulation
T2 construct: host or cells: human astrocytoma cell line 1321N1
T2 sequence (P30988 25-474): T1 sequence (P30988 25-474)
T2 sequence (O60896 24-148 partner): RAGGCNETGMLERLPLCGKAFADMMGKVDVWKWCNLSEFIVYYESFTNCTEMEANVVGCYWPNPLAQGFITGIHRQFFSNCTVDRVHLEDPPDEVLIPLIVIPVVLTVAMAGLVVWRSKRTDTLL
Method in brief: as §1

Structure (SMILES)	EC50 [1] [nM]	EC50 [2] [nM]
CC[C@H](C)[C@@H](C(=O)N[C@@H](CC(C)C)C(=O)N[C@@H](CO)C(=O)N[C@@H](CO)C(=O)N[C@H](C(=O)N[C@@H](CCC(=O)O)C(=O)N[C@H](C(=O)NCC(=O)N[C@@H](CO)C(=O)N[C@@H](CC(N)=O)C(=O)N[C@H](C(=O)N1C[C@H](O)C[C@H]1C(N)=O)[C@@H](C)O)C(C)C)[C@@H](C)O)N(C)C(=O)[C@H](C)NC(=O)CN(C)C(=O)[C@H](Cc1ccccc1)NC(=O)[C@H](C)NC(=O)[C@H](C)NC(=O)[C@H](CCCNC(=N)N)NC(=O)[C@H](CCC(N)=O)NC(=O)[C@H](CC(C)C)NC(=O)[C@H](Cc1ccccc1)NC(=O)[C@H](CCCC(=O)O)NC(=O)[C@H](C)NC(=O)[C@H](CC(C)C)NC(=O)[C@H](CCCNC(=N)N)NC(=O)[C@H](CCC(=O)O)NC(=O)[C@@H](NC(=O)[C@H](C)NC(=O)[C@@H]1CCCCNC(=O)C[C@H](NC(=O)[C@H](CCCNC(=N)N)NC(=O)CC[C@H](NC(=O)CCCCCCCCCCCCCCCCCCC(=O)O)C(=O)O)C(=O)NCC(=O)N[C@@H]([C@@H](C)O)C(=O)N[C@@H](C)C(=O)N[C@@H]([C@@H](C)O)C(=O)N1)[C@@H](C)O [Compound 31, [19CD]-isoGlu-RD()GTATK()ATERLA-Aad-FLQRAAF-Gly(Me)-A-Ile(Me)-LSSTEVGSNT-Hyp-NH2] ({C20 diacid-γGlu}-RDGTATKATERLA[Aad]FLQRAAF[Sar]A[NMeI]LSSTEVGSNT[Hyp]-NH2; lactam 2-7)	0.227	0.066
CC[C@H](C)[C@@H](C(=O)N[C@@H](CC(C)C)C(=O)N[C@@H](CO)C(=O)N[C@@H](CO)C(=O)N[C@H](C(=O)N[C@@H](CCC(=O)O)C(=O)N[C@H](C(=O)NCC(=O)N[C@@H](CO)C(=O)N[C@@H](CC(N)=O)C(=O)N[C@H](C(=O)N1C[C@H](O)C[C@H]1C(N)=O)[C@@H](C)O)[C@@H](C)O)[C@@H](C)O)N(C)C(=O)[C@H](C)NC(=O)CN(C)C(=O)[C@H](Cc1ccccc1)NC(=O)[C@H](CO)NC(=O)[C@H](CO)NC(=O)[C@H](CCCNC(=N)N)NC(=O)[C@H](CCC(N)=O)NC(=O)[C@H](CC(C)C)NC(=O)[C@H](Cc1ccccc1)NC(=O)[C@H](CC(=O)O)NC(=O)[C@H](C)NC(=O)[C@H](CC(C)C)NC(=O)[C@H](CCCNC(=N)N)NC(=O)[C@H](CCC(N)=O)NC(=O)[C@@H](NC(=O)[C@H](C)NC(=O)[C@@H]1CCCCNC(=O)C[C@H](NC(=O)[C@H](CCCNC(=N)N)NC(=O)CC[C@H](NC(=O)CCCCCCCCCCCCCCCCCCC(=O)O)C(=O)O)C(=O)NCC(=O)N[C@@H]([C@@H](C)O)C(=O)N[C@@H](C)C(=O)N[C@@H]([C@@H](C)O)C(=O)N1)[C@@H](C)O [Compound 42, [19CD]-isoGlu-RD()GTATK()ATQRLADFLQRSSF-Gly(Me)-A-Ile(Me)-LSSTETGSNT-Hyp-NH2] ({C20 diacid-γGlu}-RDGTATKATQRLADFLQRSSF[Sar]A[NMeI]LSSTETGSNT[Hyp]-NH2; lactam 2-7)	0.006	0.003
CC[C@H](C)[C@@H](C(=O)N[C@@H](CC(C)C)C(=O)N[C@@H](CO)C(=O)N[C@@H](CO)C(=O)N[C@H](C(=O)N[C@@H](CCC(=O)O)C(=O)N[C@H](C(=O)NCC(=O)N[C@@H](CO)C(=O)N[C@@H](CC(N)=O)C(=O)N[C@H](C(=O)N1C[C@H](O)C[C@H]1C(N)=O)[C@@H](C)O)C(C)C)[C@@H](C)O)N(C)C(=O)[C@H](C)NC(=O)CN(C)C(=O)[C@H](Cc1ccccc1)NC(=O)[C@H](CO)NC(=O)[C@H](CO)NC(=O)[C@H](CCCNC(=N)N)NC(=O)[C@H](CCC(N)=O)NC(=O)[C@H](CC(C)C)NC(=O)[C@H](Cc1ccccc1)NC(=O)[C@H](Cc1c[nH]cn1)NC(=O)[C@H](C)NC(=O)[C@H](CC(C)C)NC(=O)[C@H](CCCNC(=N)N)NC(=O)[C@H](CCC(=O)O)NC(=O)[C@@H](NC(=O)[C@H](C)NC(=O)[C@@H]1CC(=O)NC[C@H](NC(=O)[C@H](CCCNC(=N)N)NC(=O)CC[C@H](NC(=O)CCCCCCCCCCCCCCCCCCC(=O)O)C(=O)O)C(=O)NCC(=O)N[C@@H]([C@@H](C)O)C(=O)N[C@@H](C)C(=O)N[C@@H]([C@@H](C)O)C(=O)N1)[C@@H](C)O [Compound 45, [19CD]-isoGlu-R-Dap()-GTATD()ATERLAHFLQRSSF-Gly(Me)-A-Ile(Me)-LSSTEVGSNT-Hyp-NH2] ({C20 diacid-γGlu}-R[Dap]GTATDATERLAHFLQRSSF[Sar]A[NMeI]LSSTEVGSNT[Hyp]-NH2; lactam 2-7)	299	279
CC[C@H](C)[C@@H](C(=O)N[C@@H](CC(C)C)C(=O)N[C@@H](CO)C(=O)N[C@@H](CO)C(=O)N[C@H](C(=O)N[C@@H](CCC(=O)O)C(=O)N[C@H](C(=O)NCC(=O)N[C@@H](CO)C(=O)N[C@@H](CC(N)=O)C(=O)N[C@H](C(=O)N1C[C@H](O)C[C@H]1C(N)=O)[C@@H](C)O)C(C)C)[C@@H](C)O)N(C)C(=O)[C@H](C)NC(=O)CN(C)C(=O)[C@H](Cc1ccccc1)NC(=O)[C@H](CO)NC(=O)[C@H](CO)NC(=O)[C@H](CCCNC(=N)N)NC(=O)[C@H](CCC(N)=O)NC(=O)[C@H](CC(C)C)NC(=O)[C@H](Cc1ccccc1)NC(=O)[C@H](Cc1c[nH]cn1)NC(=O)[C@H](C)NC(=O)[C@H](CC(C)C)NC(=O)[C@H](CCCNC(=N)N)NC(=O)[C@H](CCC(=O)O)NC(=O)[C@@H](NC(=O)[C@H](C)NC(=O)[C@@H]1CC(=O)NCC[C@H](NC(=O)[C@H](CCCNC(=N)N)NC(=O)CC[C@H](NC(=O)CCCCCCCCCCCCCCCCCCC(=O)O)C(=O)O)C(=O)NCC(=O)N[C@@H]([C@@H](C)O)C(=O)N[C@@H](C)C(=O)N[C@@H]([C@@H](C)O)C(=O)N1)[C@@H](C)O [Compound 46, [19CD]-isoGlu-R-Dab()-GTATD()ATERLAHFLQRSSF-Gly(Me)-A-Ile(Me)-LSSTEVGSNT-Hyp-NH2] ({C20 diacid-γGlu}-R[Dab]GTATDATERLAHFLQRSSF[Sar]A[NMeI]LSSTEVGSNT[Hyp]-NH2; lactam 2-7)	7.5	5.5
CC[C@H](C)[C@@H](C(=O)N[C@@H](CC(C)C)C(=O)N[C@@H](CO)C(=O)N[C@@H](CO)C(=O)N[C@H](C(=O)N[C@@H](CCC(=O)O)C(=O)N[C@H](C(=O)NCC(=O)N[C@@H](CO)C(=O)N[C@@H](CC(N)=O)C(=O)N[C@H](C(=O)N1C[C@H](O)C[C@H]1C(N)=O)[C@@H](C)O)C(C)C)[C@@H](C)O)N(C)C(=O)[C@H](C)NC(=O)CN(C)C(=O)[C@H](Cc1ccccc1)NC(=O)[C@H](CO)NC(=O)[C@H](CO)NC(=O)[C@H](CCCNC(=N)N)NC(=O)[C@H](CCC(N)=O)NC(=O)[C@H](CC(C)C)NC(=O)[C@H](Cc1ccccc1)NC(=O)[C@H](Cc1c[nH]cn1)NC(=O)[C@H](C)NC(=O)[C@H](CC(C)C)NC(=O)[C@H](CCCNC(=N)N)NC(=O)[C@H](CCC(=O)O)NC(=O)[C@@H](NC(=O)[C@H](C)NC(=O)[C@@H]1CC(=O)NCCC[C@H](NC(=O)[C@H](CCCNC(=N)N)NC(=O)CC[C@H](NC(=O)CCCCCCCCCCCCCCCCCCC(=O)O)C(=O)O)C(=O)NCC(=O)N[C@@H]([C@@H](C)O)C(=O)N[C@@H](C)C(=O)N[C@@H]([C@@H](C)O)C(=O)N1)[C@@H](C)O [Compound 47, [19CD]-isoGlu-R-Orn()-GTATD()ATERLAHFLQRSSF-Gly(Me)-A-Ile(Me)-LSSTEVGSNT-Hyp-NH2] ({C20 diacid-γGlu}-R[Orn]GTATDATERLAHFLQRSSF[Sar]A[NMeI]LSSTEVGSNT[Hyp]-NH2; lactam 2-7)	10.8	7.7
CC[C@H](C)[C@@H](C(=O)N[C@@H](CC(C)C)C(=O)N[C@@H](CO)C(=O)N[C@@H](CO)C(=O)N[C@H](C(=O)N[C@@H](CCC(=O)O)C(=O)N[C@H](C(=O)NCC(=O)N[C@@H](CO)C(=O)N[C@@H](CC(N)=O)C(=O)N[C@H](C(=O)N1C[C@H](O)C[C@H]1C(N)=O)[C@@H](C)O)C(C)C)[C@@H](C)O)N(C)C(=O)[C@H](C)NC(=O)CN(C)C(=O)[C@H](Cc1ccccc1)NC(=O)[C@H](CO)NC(=O)[C@H](CO)NC(=O)[C@H](CCCNC(=N)N)NC(=O)[C@H](CCC(N)=O)NC(=O)[C@H](CC(C)C)NC(=O)[C@H](Cc1ccccc1)NC(=O)[C@H](Cc1c[nH]cn1)NC(=O)[C@H](C)NC(=O)[C@H](CC(C)C)NC(=O)[C@H](CCCNC(=N)N)NC(=O)[C@H](CCC(=O)O)NC(=O)[C@@H](NC(=O)[C@H](C)NC(=O)[C@@H]1CNC(=O)CCC[C@H](NC(=O)[C@H](CCCNC(=N)N)NC(=O)CC[C@H](NC(=O)CCCCCCCCCCCCCCCCCCC(=O)O)C(=O)O)C(=O)NCC(=O)N[C@@H]([C@@H](C)O)C(=O)N[C@@H](C)C(=O)N[C@@H]([C@@H](C)O)C(=O)N1)[C@@H](C)O [Compound 50, [19CD]-isoGlu-R-Aad()-GTAT-Dap()-ATERLAHFLQRSSF-Gly(Me)-A-Ile(Me)-LSSTEVGSNT-Hyp-NH2] ({C20 diacid-γGlu}-R[Aad]GTAT[Dap]ATERLAHFLQRSSF[Sar]A[NMeI]LSSTEVGSNT[Hyp]-NH2; lactam 2-7)	3.3	1.5
